Results: ChEMBL document CHEMBL1135949, “Pyrrolylquinoxalinediones carrying a piperazine residue represent highly potent and selective ligands to the homomeric kainate receptor GluR5” (Bioorg Med Chem Lett, 2002)

What was measured:
[1] = target: T1, Glutamate receptor ionotropic, kainate 5 (Homo sapiens, UniProt Q16478); assay: Binding affinity towards Kai-2 using [3]H-kainate as the radioligand
T1 sequence (Q16478 whole entry): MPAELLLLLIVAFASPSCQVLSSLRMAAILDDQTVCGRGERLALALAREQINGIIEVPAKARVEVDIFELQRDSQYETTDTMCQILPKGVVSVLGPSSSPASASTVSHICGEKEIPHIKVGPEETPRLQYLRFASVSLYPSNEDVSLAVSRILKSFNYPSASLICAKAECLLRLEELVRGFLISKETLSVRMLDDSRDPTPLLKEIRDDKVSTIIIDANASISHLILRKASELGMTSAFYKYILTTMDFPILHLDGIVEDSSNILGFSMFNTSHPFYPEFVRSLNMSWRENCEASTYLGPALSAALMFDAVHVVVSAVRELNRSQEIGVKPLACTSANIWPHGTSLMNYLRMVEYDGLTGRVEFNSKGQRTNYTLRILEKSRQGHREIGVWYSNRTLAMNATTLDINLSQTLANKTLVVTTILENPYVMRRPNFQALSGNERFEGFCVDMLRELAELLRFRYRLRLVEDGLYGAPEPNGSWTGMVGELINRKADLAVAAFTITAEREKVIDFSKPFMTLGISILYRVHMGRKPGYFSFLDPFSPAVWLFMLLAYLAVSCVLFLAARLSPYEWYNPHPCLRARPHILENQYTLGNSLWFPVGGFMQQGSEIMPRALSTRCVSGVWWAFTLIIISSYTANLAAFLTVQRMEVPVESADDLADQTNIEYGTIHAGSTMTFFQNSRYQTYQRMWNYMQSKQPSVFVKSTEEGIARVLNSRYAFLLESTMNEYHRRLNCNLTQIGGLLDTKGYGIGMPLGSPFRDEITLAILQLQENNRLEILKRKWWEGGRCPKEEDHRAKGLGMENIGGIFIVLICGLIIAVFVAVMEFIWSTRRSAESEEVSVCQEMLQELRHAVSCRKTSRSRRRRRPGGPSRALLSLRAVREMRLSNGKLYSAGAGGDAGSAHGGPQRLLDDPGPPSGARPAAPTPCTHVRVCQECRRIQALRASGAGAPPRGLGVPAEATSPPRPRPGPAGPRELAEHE

[2] = target: Glutamate receptor ionotropic, kainate 2 (Homo sapiens, UniProt Q13002); assay: Binding affinity for human GluR6 expressed in HEK293 cells using [3]H-kainate; assay type: cell-based
Glutamate receptor ionotropic, kainate 2, sequence (Q13002 whole entry): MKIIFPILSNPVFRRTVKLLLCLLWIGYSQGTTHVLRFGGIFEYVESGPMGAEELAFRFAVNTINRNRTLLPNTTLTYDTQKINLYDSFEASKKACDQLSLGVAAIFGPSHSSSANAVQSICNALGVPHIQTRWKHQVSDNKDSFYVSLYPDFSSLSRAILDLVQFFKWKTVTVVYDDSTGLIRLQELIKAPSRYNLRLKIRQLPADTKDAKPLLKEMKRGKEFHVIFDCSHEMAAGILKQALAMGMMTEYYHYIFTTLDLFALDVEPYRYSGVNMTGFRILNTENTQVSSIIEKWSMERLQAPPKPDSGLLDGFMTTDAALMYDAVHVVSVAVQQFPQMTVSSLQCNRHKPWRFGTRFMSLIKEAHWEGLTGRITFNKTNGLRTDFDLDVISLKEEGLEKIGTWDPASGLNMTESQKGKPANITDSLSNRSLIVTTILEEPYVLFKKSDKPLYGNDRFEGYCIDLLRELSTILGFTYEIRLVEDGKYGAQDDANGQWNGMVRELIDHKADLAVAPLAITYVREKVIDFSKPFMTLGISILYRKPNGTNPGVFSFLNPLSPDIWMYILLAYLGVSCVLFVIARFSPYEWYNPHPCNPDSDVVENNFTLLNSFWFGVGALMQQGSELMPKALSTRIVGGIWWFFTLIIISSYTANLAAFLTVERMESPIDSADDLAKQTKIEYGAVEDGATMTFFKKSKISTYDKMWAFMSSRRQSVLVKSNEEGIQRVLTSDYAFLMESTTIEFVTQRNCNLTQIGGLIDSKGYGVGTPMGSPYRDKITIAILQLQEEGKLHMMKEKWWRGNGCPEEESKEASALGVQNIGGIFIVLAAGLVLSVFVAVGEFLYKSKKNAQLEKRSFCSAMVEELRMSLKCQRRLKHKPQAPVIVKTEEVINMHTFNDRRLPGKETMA

[3] = target: Glutamate receptor ionotropic, kainate 1 (Homo sapiens, UniProt P39086); assay: Binding affinity towards cloned human GluR5 subunit stably expressed in cultured HEK293 cells using [3]H-kainate as radioligand; assay type: cell-based
Glutamate receptor ionotropic, kainate 1, sequence (P39086 whole entry): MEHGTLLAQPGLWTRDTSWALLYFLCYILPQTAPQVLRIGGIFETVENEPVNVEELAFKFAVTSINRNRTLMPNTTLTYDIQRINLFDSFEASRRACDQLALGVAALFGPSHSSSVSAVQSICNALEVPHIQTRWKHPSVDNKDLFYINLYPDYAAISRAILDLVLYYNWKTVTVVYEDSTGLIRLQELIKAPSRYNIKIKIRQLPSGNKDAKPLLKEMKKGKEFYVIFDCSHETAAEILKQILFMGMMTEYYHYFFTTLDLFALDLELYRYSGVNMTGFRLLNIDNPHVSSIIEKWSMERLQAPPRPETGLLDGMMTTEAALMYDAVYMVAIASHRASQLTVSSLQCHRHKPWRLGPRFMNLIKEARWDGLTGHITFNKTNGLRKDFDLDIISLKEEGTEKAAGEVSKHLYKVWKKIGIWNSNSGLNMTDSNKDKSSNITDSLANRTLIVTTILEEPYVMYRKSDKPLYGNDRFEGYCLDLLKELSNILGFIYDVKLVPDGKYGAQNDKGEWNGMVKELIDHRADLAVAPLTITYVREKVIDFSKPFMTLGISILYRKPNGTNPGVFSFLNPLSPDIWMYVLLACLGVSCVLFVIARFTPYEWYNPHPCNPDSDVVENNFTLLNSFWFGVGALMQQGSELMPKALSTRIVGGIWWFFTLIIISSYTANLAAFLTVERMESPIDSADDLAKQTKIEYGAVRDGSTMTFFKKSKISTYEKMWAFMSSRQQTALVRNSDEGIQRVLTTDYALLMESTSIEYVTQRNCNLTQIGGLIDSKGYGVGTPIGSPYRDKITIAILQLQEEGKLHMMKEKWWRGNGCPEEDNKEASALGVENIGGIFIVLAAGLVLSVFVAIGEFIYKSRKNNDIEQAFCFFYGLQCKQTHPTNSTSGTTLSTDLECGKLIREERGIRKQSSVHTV

[4] = target: T1, Glutamate receptor ionotropic, kainate 5; assay: Binding affinity towards cloned human Kai-2 subunit stably expressed in cultured HEK293 cells using [3]H-kainate as radioligand; assay type: cell-based

| Compound | Ki [2] | Ki [4] | Ki [1] | Ki [3] |
| --- | --- | --- | --- | --- |
| NCc1ccn(-c2cc3c(cc2[N+](=O)[O-])[nH]c(=O)c(=O)n3CC(=O)O)c1 | 1.5 µM | – | 9.8 µM | – |
| O=C(O)Cn1c(=O)c(=O)[nH]c2cc(C(F)(F)F)c(-n3ccc(CNC(=O)Nc4ccc([N+](=O)[O-])cc4)c3)cc21 | 0.61 µM | – | 12 µM | 0.1 µM |
| O=C(O)Cn1c(=O)c(=O)[nH]c2cc([N+](=O)[O-])c(-n3cccc3)cc21 | 3.9 µM | 1.3 µM | – | – |
| O=C(O)Cn1c(=O)c(=O)[nH]c2cc([N+](=O)[O-])c(-n3ccc(C(=O)O)c3)cc21 | 5.8 µM | – | 11 µM | 1.4 µM |
| O=C(O)Cn1c(=O)c(=O)[nH]c2cc([N+](=O)[O-])c(-n3ccc(CN4CCCCC4)c3)cc21 | 28 µM | > 30 µM | – | – |
| O=C(O)CCn1c(=O)c(=O)[nH]c2cc([N+](=O)[O-])c(-n3cccc3)cc21 | 1.2 µM | 25 µM | – | 2.4 µM |
| O=C(O)Cn1c(=O)c(=O)[nH]c2cc([N+](=O)[O-])c(-n3ccc(CN4CCC(c5ccccc5)CC4)c3)cc21 | 3.6 µM | 18 µM | – | – |

Further lines, with some results ahead:

| Ki [2] | Ki [4] | Compound | Ki [1] | Ki [3] |
| --- | --- | --- | --- | --- |
| 6.2 µM | 20 µM | O=C(O)Cn1c(=O)c(=O)[nH]c2cc([N+](=O)[O-])c(-n3ccc(CNCCCc4ccccc4)c3)cc21 | – | – |
| 4.1 µM | 20 µM | O=C(O)Cn1c(=O)c(=O)[nH]c2cc([N+](=O)[O-])c(-n3ccc(CN4CCN(Cc5ccccc5)CC4)c3)cc21 | – | – |
| 23 µM | > 30 µM | CN(Cc1ccccc1)Cc1ccn(-c2cc3c(cc2[N+](=O)[O-])[nH]c(=O)c(=O)n3CCC(=O)O)c1 | – | – |
| 1.4 µM | 25 µM | O=C(O)Cn1c(=O)c(=O)[nH]c2cc([N+](=O)[O-])c(-n3ccc(CN4CCN(CCc5ccccc5)CC4)c3)cc21 | – | – |
